Assay results reported in US20200338028A1, “BENZENESULFONAMIDE DERIVATIVES AND METHOD FOR MODULATING LIPID RAFT” (Gongwin Biopharm Co., Ltd., priority 2017, published 2020).
Peptide text beside a SMILES is read from it. * marks the point of attachment. Cbz = O=C(OCc1ccccc1)*; CH2F = FC*

What was measured:
Type in all cases: cell-based, human
[1] = test system: PC-3 cells; test: colony formation (clonogenic) assay; conditions: PC-3, PTS 1.5 mM, 10 days, FIG. 6E
Experimental: To assay the anchorage-dependent clonogenic effect, each individual PC-3 and DU-145 cells (150 cells/well) were seeded in a 6-well plate. After a 10-day treatment with p-TSA, the cell colonies were rinsed with phosphate-buffered saline (PBS), stained with 0.4% (w/v) crystal violet dissolved in 20% methanol, and lysed by 50 mM sodium citrate dissolved in 50% ethanol. The absorbance was read at a wavelength of 595 nm.
To further substantiate the role of Akt, the Myr-Akt overexpressed PC-3 cells were prepared with the method shown as follows. The plasmid encoding Myr-Akt, an N-terminally myristoylation signal-attached Akt, was a gift from Professor Mien-Chie Hung (The University of Texas, M.D. Anderson Cancer Center). For transfection, PC-3 cells were seeded into 60-mm tissue culture dishes with 30% confluence and grown for 24 h to 50-60% confluence. Each dish was washed with serum-free Opti-MEM (Life Technologies), and 2 ml of the serum-free Opti-MEM was then added. Aliquots containing Myr-Akt expression vector or a control plasmid in serum-free Opti-MEM were transfected into cells using Lipofectamine 2000 (Invitrogen) following the manufacturer's instructions. After incubation for 6 h at 37° C., cells were washed with serum-free Opti-MEM and incubated in 10% FBS-containing RPMI-1640 medium for 48 h. The cells were treated with or without p-TSA and then the related analyses were performed. […] Furthermore, the functional rescue of Myr-Akt was determined. […] However, overexpression of Myr-Akt had minimal effect on p-TSA-induced cyclin D1 down-regulation.

[2] = test system: DU-145 cells; test: Western blot of Bcl-2 family members, cell cycle regulators and Akt/mTOR/p70S6K pathway signals
Experimental: (§1) In addition, protein expression assay of each Mcl-1, Bcl-2, Bid, PUMA and Bak was performed by western blotting with methods described as follows. After treatment of PC-3 and DU145 cells with p-TSA, the cells were harvested with trypsinization, centrifuged and lysed in 0.1 ml of lysis buffer containing 10 mM Tris-HCl (pH 7.4), 150 mM NaCl, 1 mM EGTA, 1% Triton X-100, 1 mM PMSF, 10 μg/ml leupeptin, 10 μg/ml aprotinin, 50 mM NaF and 100 μM sodium orthovanadate. Total protein was quantified, mixed with the sample buffer and boiled at 90° C. for 5 min. Equal amount of protein (30 μg) was separated by electrophoresis in 8% or 12% SDS-PAGE, transferred to PVDF membranes and detected with specific antibodies (1:1000 dilution) for each of Mcl-1, Bcl-2, Bid, PUMA and Bak proteins. The immunoreactive proteins after incubation with appropriately labeled secondary antibody (1:3000 dilution) were detected with an enhanced chemiluminescence detection kit (Amersham, Buckinghamshire, United Kingdom). […] These effects were correlated with the mitochondrial stress.
(§2) During G1 phase, cells grow in size and synthesize mRNA and proteins which are necessary to DNA synthesis. The serine/threonine kinases mTOR and p70S6K that regulate protein synthesis (mRNA translation) through affecting the phosphorylation or activities of several downstream translation factors are critical regulators in G1 phase. Protein expression assay of each Akt, mTOR 4E-BP1 and p70S6K was performed by Western blotting.

[3] = test system: PC-3 cells; test: as above; conditions: PC-3, 1 h, FIGS. 6A to 6D
Experimental: as §1, §2

[4] = test system: PC-3 cells; test: PTS-induced apoptosis with Z-VAD-FMK (PI staining and nucleosomal DNA fragmentation assay); conditions: PC-3, 24 hours, FIG. 2E and 2F
Experimental: Flow cytometric analysis was performed as follows. Cells were harvested by trypsinization, fixed with 70% (v/v) alcohol at 4° C. for 30 min and washed with PBS. After centrifugation, the cells were incubated in phosphate-citric acid buffer (0.2 mol/l NaHPO4, 0.1 mol/l citric acid, pH 7.8) for 30 min at room temperature. The cells were then centrifuged and resuspended with 0.5 ml propidium iodide (PI) solution containing Triton X-100 (0.1% v/v), RNase (100 μg/ml) and PI (80 μg/ml). DNA content was analyzed with the FACScan and CellQuest software (Becton Dickinson, Mountain View, Calif., United States).
The DNA fragmentation was determined for cell death determination by use of the Cell Death Detection ELISAplus kit (Roche, Mannheim, Germany) The assay was based on the quantitative in vitro determination of cytoplasmic histone-associated DNA fragments (mono- and oligonucleosomes) after induced cell death. After the treatment with the compound, the cells were lysed and centrifuged, and the supernatant was used for the detection of nucleosomal DNA according to the manufacturer's protocol.

[5] = particularly in DU-145 cells, 1 h

SMILES: CC(C)CCC[C@@H](C)[C@H]1CC[C@H]2[C@@H]3CC=C4C[C@@H](O)CC[C@]4(C)[C@H]3CC[C@]12C [cholesterol, reference compound]
- effect of cholesterol on PTS-induced inhibition of cell growth, colony formation assay [1]: significantly rescued PTS-induced inhibition of cell growth
- effect of cholesterol supplement on p-TSA-induced decrease of Akt and p70S6K phosphorylation ([2]; DU-145, 1 h, FIGS. 6A to 6D): significantly rescued
- Akt phosphorylation, cholesterol by itself [2, 5]: increase
- cyclin D1 protein expression, cholesterol by itself [2, 5]: decrease
- effect of cholesterol supplement on p-TSA-induced decrease of Akt and p70S6K phosphorylation [3]: significantly rescued

SMILES: COC(=O)C[C@H](NC(=O)[C@H](C)NC(=O)[C@@H](NC(=O)OCc1ccccc1)C(C)C)C(=O)CF [Z-VAD-FMK] (Cbz-Val-Ala-Asp(OMe)-CH2F)
- effect of Z-VAD-FMK on PTS-induced apoptosis [4]: profoundly inhibited PTS-induced apoptosis
